ChEMBL document CHEMBL5303573, “Mapping human microbiome drug metabolism by gut bacteria and their genes” (Nature, 2019)

How the values were obtained:
Assay type in all cases: ADME
Set-up in all cases: dose 2 uM
Conditions in all cases: 2 µM
Acyltransferase = molecular target: T1, Acyltransferase (Bacteroides thetaiotaomicron, UniProt Q8A575); experiment: (§1) The drug is tested on Bacteroides thetaiotaomicron strain: VPI-5482 for biotransformation. The drug concentrations were measured before and after a 12-h incubation by liquid-chromatography-coupled mass spectrometry (LC–MS)
T1 sequence (Q8A575 whole entry): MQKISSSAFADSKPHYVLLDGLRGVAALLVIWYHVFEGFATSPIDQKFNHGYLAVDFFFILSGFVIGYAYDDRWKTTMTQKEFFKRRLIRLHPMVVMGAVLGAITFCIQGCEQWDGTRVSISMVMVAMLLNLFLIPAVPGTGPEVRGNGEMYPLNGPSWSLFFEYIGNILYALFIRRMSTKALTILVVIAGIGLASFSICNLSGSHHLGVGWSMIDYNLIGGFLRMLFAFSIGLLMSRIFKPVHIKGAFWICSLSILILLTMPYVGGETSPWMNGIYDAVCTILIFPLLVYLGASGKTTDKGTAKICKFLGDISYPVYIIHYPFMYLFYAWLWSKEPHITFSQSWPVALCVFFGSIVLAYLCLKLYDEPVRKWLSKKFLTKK

[1] = molecular target: T2, Lipolytic enzyme, G-D-S-L family (Bacteroides thetaiotaomicron, UniProt Q8A0E6); experiment: as §1
T2 sequence (Q8A0E6 whole entry): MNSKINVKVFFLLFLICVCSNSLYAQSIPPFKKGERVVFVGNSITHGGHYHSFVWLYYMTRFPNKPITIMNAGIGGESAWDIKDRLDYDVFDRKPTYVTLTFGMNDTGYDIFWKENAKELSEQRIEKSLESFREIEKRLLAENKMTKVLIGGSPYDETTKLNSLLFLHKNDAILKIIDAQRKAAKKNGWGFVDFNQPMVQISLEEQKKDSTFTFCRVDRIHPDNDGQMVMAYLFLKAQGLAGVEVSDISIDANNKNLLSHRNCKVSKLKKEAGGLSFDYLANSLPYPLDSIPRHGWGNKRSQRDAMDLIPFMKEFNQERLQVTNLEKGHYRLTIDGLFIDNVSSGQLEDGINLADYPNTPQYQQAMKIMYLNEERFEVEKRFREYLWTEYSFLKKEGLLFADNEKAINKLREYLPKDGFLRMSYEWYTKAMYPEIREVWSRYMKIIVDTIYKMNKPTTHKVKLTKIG

Acylhydrolase = molecular target: T3, Acylhydrolase (Bacteroides thetaiotaomicron, UniProt Q8AA96); experiment: as §1
T3 sequence (Q8AA96 whole entry): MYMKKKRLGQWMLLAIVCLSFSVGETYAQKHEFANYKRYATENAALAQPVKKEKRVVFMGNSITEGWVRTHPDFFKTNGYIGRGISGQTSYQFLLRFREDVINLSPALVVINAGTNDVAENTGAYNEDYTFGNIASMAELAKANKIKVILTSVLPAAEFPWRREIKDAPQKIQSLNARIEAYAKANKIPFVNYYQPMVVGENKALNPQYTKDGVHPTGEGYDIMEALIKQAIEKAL

Nitroreductase = molecular target: T4, Nitroreductase (Bacteroides thetaiotaomicron, UniProt Q8A911); experiment: as §1
T4 sequence (Q8A911 whole entry): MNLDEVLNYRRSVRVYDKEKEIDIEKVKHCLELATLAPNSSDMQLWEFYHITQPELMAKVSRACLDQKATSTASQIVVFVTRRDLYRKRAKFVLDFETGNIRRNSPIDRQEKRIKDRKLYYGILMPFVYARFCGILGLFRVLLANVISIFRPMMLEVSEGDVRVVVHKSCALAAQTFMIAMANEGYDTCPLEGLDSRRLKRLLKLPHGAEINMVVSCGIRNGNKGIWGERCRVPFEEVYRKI

[2] = molecular target: T5, NADH dehydrogenase/NAD(P)H nitroreductase (Bacteroides thetaiotaomicron, UniProt Q8A8L9); experiment: as §1
T5 sequence (Q8A8L9 whole entry): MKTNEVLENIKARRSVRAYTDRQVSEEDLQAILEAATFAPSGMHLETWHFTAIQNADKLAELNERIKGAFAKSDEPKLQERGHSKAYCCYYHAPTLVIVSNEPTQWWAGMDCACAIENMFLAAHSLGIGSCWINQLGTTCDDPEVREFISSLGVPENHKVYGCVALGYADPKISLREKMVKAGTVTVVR

Endoglucanase E (EGE) = molecular target: T6, Endoglucanase E (EGE) (Bacteroides thetaiotaomicron, UniProt Q8AAL9); experiment: as §1
T6 sequence (Q8AAL9 whole entry): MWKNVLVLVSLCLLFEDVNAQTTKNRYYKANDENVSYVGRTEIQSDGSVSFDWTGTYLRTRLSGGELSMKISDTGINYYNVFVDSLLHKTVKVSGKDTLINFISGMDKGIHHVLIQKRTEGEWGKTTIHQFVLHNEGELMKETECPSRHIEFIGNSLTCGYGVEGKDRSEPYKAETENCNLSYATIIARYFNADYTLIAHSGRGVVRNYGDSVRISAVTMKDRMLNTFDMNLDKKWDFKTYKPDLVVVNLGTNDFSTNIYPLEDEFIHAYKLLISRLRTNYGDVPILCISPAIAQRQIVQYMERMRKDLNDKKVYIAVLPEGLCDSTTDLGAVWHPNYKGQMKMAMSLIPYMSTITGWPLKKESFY

Xylanase = molecular target: T7, Xylanase (Bacteroides thetaiotaomicron, UniProt Q8A8H5); experiment: as §1
T7 sequence (Q8A8H5 whole entry): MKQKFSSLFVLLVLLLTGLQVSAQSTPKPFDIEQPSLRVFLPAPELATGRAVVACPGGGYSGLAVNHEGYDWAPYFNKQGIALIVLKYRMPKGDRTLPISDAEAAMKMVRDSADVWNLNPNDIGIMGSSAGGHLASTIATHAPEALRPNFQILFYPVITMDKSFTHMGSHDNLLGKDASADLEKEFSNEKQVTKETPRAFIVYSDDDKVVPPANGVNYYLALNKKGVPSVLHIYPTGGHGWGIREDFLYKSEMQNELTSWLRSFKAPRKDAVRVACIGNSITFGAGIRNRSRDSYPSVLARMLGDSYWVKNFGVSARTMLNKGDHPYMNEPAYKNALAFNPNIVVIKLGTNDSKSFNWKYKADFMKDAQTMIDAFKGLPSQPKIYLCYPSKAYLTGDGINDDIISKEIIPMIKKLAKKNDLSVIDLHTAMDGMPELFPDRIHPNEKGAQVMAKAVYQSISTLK

[3] = molecular target: T8, Lipolytic enzyme, G-D-S-L family (Bacteroides thetaiotaomicron, UniProt Q8A0C5); experiment: as §1
T8 sequence (Q8A0C5 whole entry): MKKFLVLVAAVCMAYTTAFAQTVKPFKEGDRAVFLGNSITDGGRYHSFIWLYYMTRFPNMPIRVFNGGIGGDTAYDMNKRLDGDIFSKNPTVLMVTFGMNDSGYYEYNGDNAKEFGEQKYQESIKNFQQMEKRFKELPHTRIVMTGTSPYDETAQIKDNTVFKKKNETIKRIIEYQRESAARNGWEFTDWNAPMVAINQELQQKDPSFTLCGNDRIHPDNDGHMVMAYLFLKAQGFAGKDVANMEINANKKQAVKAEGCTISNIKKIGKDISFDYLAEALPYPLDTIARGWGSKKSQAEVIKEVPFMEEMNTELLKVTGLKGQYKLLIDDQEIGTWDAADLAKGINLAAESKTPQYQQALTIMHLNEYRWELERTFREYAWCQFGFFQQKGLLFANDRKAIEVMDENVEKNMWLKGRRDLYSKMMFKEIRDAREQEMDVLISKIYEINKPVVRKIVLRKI

General stress protein = General stress protein (Bacteroides thetaiotaomicron, UniProt Q8A7U5); experiment: as §1
Sequence of General stress protein (Q8A7U5 1-138, change not shown): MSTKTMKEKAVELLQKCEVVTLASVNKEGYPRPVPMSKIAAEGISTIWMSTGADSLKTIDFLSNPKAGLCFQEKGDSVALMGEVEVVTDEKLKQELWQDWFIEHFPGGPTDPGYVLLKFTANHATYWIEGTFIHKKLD

| SMILES | Bacterial Biotransformation (Acyltransferase) | Bacterial Biotransformation [1] | Bacterial Biotransformation (Acylhydrolase) | Bacterial Biotransformation (Nitroreductase) | Bacterial Biotransformation [2] | Bacterial Biotransformation (Endoglucanase E (EGE)) | Bacterial Biotransformation (Xylanase) | Bacterial Biotransformation [3] | Bacterial Biotransformation (General stress protein) |
| --- | --- | --- | --- | --- | --- | --- | --- | --- | --- |
| CC(=O)OCC(=O)[C@@]1(OC(C)=O)[C@@H](C)C[C@H]2[C@@H]3C[C@H](F)C4=CC(=O)C=C[C@]4(C)[C@@]3(F)[C@@H](O)C[C@@]21C [DIFLORASONE DIACETATE] | Compound NOT metabolized | Compound NOT metabolized | Compound metabolized | Compound NOT metabolized | Compound NOT metabolized | Compound NOT metabolized | Compound NOT metabolized | Compound metabolized | Compound NOT metabolized |
| COc1ccc([C@@H]2Sc3ccccc3N(CCN(C)C)C(=O)[C@@H]2OC(C)=O)cc1 [DILTIAZEM] | Compound NOT metabolized | Compound NOT metabolized | Compound NOT metabolized | Compound NOT metabolized | Compound NOT metabolized | Compound NOT metabolized | Compound NOT metabolized | Compound metabolized | Compound NOT metabolized |
| CC(=O)OCC(CCn1cnc2cnc(N)nc21)COC(C)=O [FAMCICLOVIR] | Compound NOT metabolized | Compound NOT metabolized | Compound metabolized | Compound NOT metabolized | Compound NOT metabolized | Compound NOT metabolized | Compound NOT metabolized | Compound metabolized | Compound NOT metabolized |

Further lines, results first:

| Bacterial Biotransformation (Acyltransferase) | Bacterial Biotransformation [1] | Bacterial Biotransformation (Acylhydrolase) | Bacterial Biotransformation (Nitroreductase) | Bacterial Biotransformation [2] | Bacterial Biotransformation (Endoglucanase E (EGE)) | Bacterial Biotransformation (Xylanase) | Bacterial Biotransformation [3] | Bacterial Biotransformation (General stress protein) | SMILES |
| --- | --- | --- | --- | --- | --- | --- | --- | --- | --- |
| Compound NOT metabolized | Compound NOT metabolized | Compound NOT metabolized | Compound NOT metabolized | Compound NOT metabolized | Compound NOT metabolized | Compound NOT metabolized | Compound NOT metabolized | Compound NOT metabolized | C#C[C@]1(O)CC[C@H]2[C@@H]3CCC4=CC(=O)CC[C@@H]4[C@H]3CC[C@@]21CC [LEVONORGESTREL] |
| Compound NOT metabolized | Compound NOT metabolized | Compound NOT metabolized | Compound NOT metabolized | Compound NOT metabolized | Compound NOT metabolized | Compound NOT metabolized | Compound NOT metabolized | Compound NOT metabolized | C#C[C@]1(OC(C)=O)CC[C@H]2[C@@H]3CCC4=CC(=O)CC[C@@H]4[C@H]3CC[C@@]21C [NORETHINDRONE ACETATE] |
| Compound metabolized | Compound NOT metabolized | Compound NOT metabolized | Compound NOT metabolized | Compound NOT metabolized | Compound NOT metabolized | Compound NOT metabolized | Compound NOT metabolized | Compound NOT metabolized | N#Cc1ccc2c(c1)N(CCCN1CCC(O)CC1)c1ccccc1S2 [PERICIAZINE] |
